In assay [1] the target is T1, AtGSDA (Arabidopsis thaliana, UniProt Q94BU8).
T1 construct: gene GSDA; SF form, Ser29-Tyr185, N-terminal 6xHis tag (pET-28a), recombinant, homodimer, zinc enzyme; full-length in pET-21b also made
The experiment in a line: thermal shift (dye); deamination by mass spectrometry. To be noted: printed as nearly 2; turned over to 2'-O-methylxanthosine. It is filed as biochemical.

The target of assay [2] is T2, AtGSDA (Arabidopsis thaliana, UniProt Q94BU8, Y185F).
T2 construct: gene GSDA; SF form, Ser29-Tyr185, N-terminal 6xHis tag (pET-28a), recombinant, homodimer, zinc enzyme; full-length in pET-21b also made
T2 sequence (Q94BU8 29-185 Y185F): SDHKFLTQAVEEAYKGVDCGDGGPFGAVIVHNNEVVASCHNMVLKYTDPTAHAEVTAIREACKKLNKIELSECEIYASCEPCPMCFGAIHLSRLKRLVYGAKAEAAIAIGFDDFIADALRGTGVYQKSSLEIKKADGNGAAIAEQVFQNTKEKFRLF
The experiment in a line: thermal shift. In kind it is binding.

The target in assay [3] is T1, AtGSDA. Kind of assay: thermal shift (dye); crystal structure (product formed from soaked guanosine). In kind it is binding. To be noted: printed as nearly 2; zinc enzyme; active site.
Assay [4] addresses T3, AtGSDA (Arabidopsis thaliana, UniProt Q94BU8, Y185E).
T3 construct: gene GSDA; SF form, Ser29-Tyr185, N-terminal 6xHis tag (pET-28a), recombinant, homodimer, zinc enzyme; full-length in pET-21b also made
The experiment in a line: thermal shift. It is filed as binding.

The target of assay [5] is T1, AtGSDA. The experiment in a line: crystal structure; thermal shift. To be noted: active site, described as competitive inhibitor. In kind it is binding.
Assay [6] addresses T1, AtGSDA. Kind of assay: thermal shift; deamination by mass spectrometry. It is filed as biochemical. To be noted: weak substrate; crystal soak reached product stage.
The target in the next assay is T4, GDA (Escherichia coli, UniProt P76641).
T4 construct: gene guaD; recombinant, purified as in a cited protocol
T4 sequence (P76641 1-439): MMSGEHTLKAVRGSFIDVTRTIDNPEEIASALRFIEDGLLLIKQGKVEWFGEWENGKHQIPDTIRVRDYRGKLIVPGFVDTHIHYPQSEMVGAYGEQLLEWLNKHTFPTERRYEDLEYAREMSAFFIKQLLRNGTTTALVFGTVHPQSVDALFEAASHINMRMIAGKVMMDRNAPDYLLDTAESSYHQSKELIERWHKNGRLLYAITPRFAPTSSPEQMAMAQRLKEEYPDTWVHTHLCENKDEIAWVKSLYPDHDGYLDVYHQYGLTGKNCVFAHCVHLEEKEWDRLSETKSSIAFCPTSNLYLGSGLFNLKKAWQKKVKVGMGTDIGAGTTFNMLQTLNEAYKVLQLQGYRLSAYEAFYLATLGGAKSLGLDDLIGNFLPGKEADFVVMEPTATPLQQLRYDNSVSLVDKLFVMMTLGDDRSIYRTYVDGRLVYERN
The experiment in a line: deamination by mass spectrometry; thermal shift. In kind it is biochemical. To be noted: enzyme:substrate 1:100; 50 mM sodium bicarbonate, neutral.

The target in assay [7] is T5, AtGSDA (Arabidopsis thaliana, UniProt Q94BU8, Y185K).
T5 construct: gene GSDA; SF form, Ser29-Tyr185, N-terminal 6xHis tag (pET-28a), recombinant, homodimer, zinc enzyme; full-length in pET-21b also made
T5 sequence (Q94BU8 29-185 Y185K): as the sequence (Q94BU8 29-185 Y185F) above, with F157K counted along it
Kind of assay: thermal shift. In kind it is binding.

Assay [8] deals with T6, AtGSDA (Arabidopsis thaliana, UniProt Q94BU8, E82Q).
T6 construct: gene GSDA; SF form, Ser29-Tyr185, N-terminal 6xHis tag (pET-28a), recombinant, homodimer, zinc enzyme; full-length in pET-21b also made
T6 sequence (Q94BU8 29-185 E82Q): as the sequence (Q94BU8 29-185 Y185F) above, with E54Q, F157Y counted along it
The experiment in a line: thermal shift. In kind it is binding. To be noted: catalytically impaired.

Assay [9] concerns the target T2, AtGSDA. Kind of assay: crystal structure; thermal shift. In kind it is binding. To be noted: one ligand per dimer, substrate form.

For 8 compounds, ΔTm results are on record in article PMC9739398, “Substrate Specificity of GSDA Revealed by Cocrystal Structures and Binding Studies” (International Journal of Molecular Sciences, 2022).

T1 sequence (Q94BU8 29-185): as the sequence (Q94BU8 29-185 Y185F) above, with F157Y counted along it
T3 sequence (Q94BU8 29-185 Y185E): as the sequence (Q94BU8 29-185 Y185F) above, with F157E counted along it

With `CO[C@@H]1[C@H](O)[C@@H](CO)O[C@H]1n1cnc2c(=O)[nH]c(N)nc21` [compound 1, 2′-O-methylguanosine], the ΔTm at AtGSDA [1] is ~ 2 °C.

Turning to `O=c1[nH]c(=O)c2ncn([C@@H]3O[C@H](CO)[C@@H](O)[C@H]3O)c2[nH]1` [xanthosine], the ΔTm entry at AtGSDA [2] was “WT and Y185F/E showed similar binding affinities toward the ligands”; on AtGSDA [3] it was ~ 2 °C; on AtGSDA [4], “WT and Y185F/E showed similar binding affinities toward the ligands”.

Take `O=c1[nH]cnc2c1ncn2[C@@H]1O[C@H](CO)[C@@H](O)[C@H]1O` [compound 4, inosine]: the ΔTm entry at AtGSDA [5] is “The binding position was almost unchanged when compared to Gua bound by AtGSDA”.

Take `Nc1ncnc2c1ncn2[C@@H]1O[C@H](CO)[C@@H](O)[C@H]1O` [compound 3, adenosine]: the ΔTm entry at AtGSDA [5] was “The ligand adenosine (Ado) maintained its interactions with Ala81 and Asn69 via N6”.

On to `Nc1nc(=O)[nH]c2c1ncn2[C@@H]1O[C@H](CO)[C@@H](O)[C@H]1O` [compound 5, isoguanosine], for which the ΔTm entry on AtGSDA [5] (2-keto group ligates zinc) is “its binding mode was similar to that of Xan (Figure 3c, PDB 7DM6)”.

Take `CNc1nc2c(ncn2[C@@H]2O[C@H](CO)[C@@H](O)[C@H]2O)c(=O)[nH]1` [compound 2, N^2-methylguanosine]: the ΔTm result at AtGSDA [6] is “the inhibitors Ado/isoG or the weak substrate N^2-mG normally lacked one or two functional groups”.

For `Nc1nc2[nH]cnc2c(=O)[nH]1` [guanine], at GDA, the ΔTm entry is given as “GDA showed excellent deamination capability by converting almost all of the guanine substrate”.

Turning to `Nc1nc2c(ncn2[C@@H]2O[C@H](CO)[C@@H](O)[C@H]2O)c(=O)[nH]1` [guanosine], the ΔTm entry on AtGSDA [7] was “the Y185K and E82Q mutants showed differentially reduced affinities”; on AtGSDA [8], “the Y185K and E82Q mutants showed differentially reduced affinities”; on AtGSDA [9], “the Y185F-Gua structure indicated that only one Gua molecule was bound”; on AtGSDA [4], “WT and Y185F/E showed similar binding affinities toward the ligands”.
